Experimental data reported in article PMC4387200 (Toxicology and applied pharmacology, 2015).
Read-outs that look alike come from different tables or passages of the source.

Tests used:
[1] = molecular target: T1, Human PXR (Homo sapiens, UniProt O75469)
T1 sequence (O75469 107-434): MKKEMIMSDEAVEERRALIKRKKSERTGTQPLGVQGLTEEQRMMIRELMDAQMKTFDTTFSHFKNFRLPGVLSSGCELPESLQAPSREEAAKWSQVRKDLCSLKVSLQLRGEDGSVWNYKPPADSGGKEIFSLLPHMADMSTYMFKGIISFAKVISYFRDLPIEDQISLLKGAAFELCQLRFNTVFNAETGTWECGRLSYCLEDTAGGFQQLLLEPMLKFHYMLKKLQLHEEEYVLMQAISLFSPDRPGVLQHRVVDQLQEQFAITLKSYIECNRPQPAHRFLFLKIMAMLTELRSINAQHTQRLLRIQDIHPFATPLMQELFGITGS

[2] = system: Polar bear PXR
[3] = molecular target: T1, Human PXR; conditions: maximum response as percentage of the maximum response to rifampicin
[4] = system: Polar bear PXR; conditions: for Polar bear PXR Relative activation (%): maximum response as percentage of the maximum response to rifampicin; for Relative max induction (polar bear vs human): ratio of maximum induction via pbPXR to hPXR
[5] = system: polar bear PXR; experiment: in vitro
[6] = molecular target: T1, Human PXR; experiment: in vitro

Row | Compound | Human PXR Relative activation (%) [3] | Polar bear PXR Relative activation (%) [4] | Relative max induction (polar bear vs human) [4] | other results
1 | CO[C@H]1/C=C/O[C@@]2(C)Oc3c(C)c(O)c4c(O)c(c(/C=N/N5CCN(C)CC5)c(O)c4c3C2=O)NC(=O)/C(C)=C\C=C\[C@H](C)[C@H](O)[C@@H](C)[C@@H](O)[C@@H](C)[C@H](OC(C)=O)[C@@H]1C [Rifampicin, reference compound] |  |  |  | Human PXR RECh20 ([1]; human): 0.46 µM; Polar bear PXR RECh20 ([2]; polar bear): 1.1 µM
2 | Brc1c(Br)c(Br)c(Oc2c(Br)c(Br)c(Br)c(Br)c2Br)c(Br)c1Br [BDE 209] | 26% | 19% | 0.7 | Human PXR RECh20 [1]: 16 µM
3 | Clc1ccc(Cl)c(-c2cc(Cl)c(Cl)cc2Cl)c1 [PCB 101] | 34% | 19% | 0.6 | 
4 | Brc1cc(Br)c(Oc2cc(Br)c(Br)cc2Br)cc1Br [BDE 153] | 45% | 17% | 0.4 | Human PXR RECh20 ([1]; human): 3.9 µM; fold induction [5]: 1.7 ± 0.1; fold induction [6]: 4.4 ± 0.2
5 | Clc1ccc(C(c2ccc(Cl)cc2)C(Cl)(Cl)Cl)cc1 [4,4′-DDT, Dichlorodiphenyltrichloroethane] | 53% | 42% | 0.8 | Human PXR RECh20 [1]: 9.3 µM; Polar bear PXR RECh20 [2]: 11 µM
6 | O=C(O)C(F)(F)C(F)(F)C(F)(F)C(F)(F)C(F)(F)C(F)(F)C(F)(F)C(F)(F)F [Perfluorononanoic acid (PFNA), Perfluorononanoic acid] | 11% | 10% | 0.9 | 
7 | Clc1ccc(-c2cc(Cl)c(Cl)c(Cl)c2Cl)c(Cl)c1Cl [PCB 170] | 24% | 15% | 0.6 | 
8 | C[Si]1(C)O[Si](C)(C)O[Si](C)(C)O[Si](C)(C)O[Si](C)(C)O1 [Decamethylcyclopentasiloxane (D5), Decamethylcyclopentasiloxane] | 22% | 16% | 0.7 | Human PXR RECh20 ([1]; human): 35 µM; fold induction [5]: 1.6 ± 0.2; fold induction [6]: 2.2 ± 0.2
9 | Brc1ccc(Oc2cc(Br)c(Br)cc2Br)c(Br)c1 [BDE 99] | 52% | 16% | 0.3 | Human PXR RECh20 [1]: 4.8 µM
10 | O=c1cc(-c2ccccc2)oc2ccc3ccccc3c12 [β-naphtoflavone (BNF), β-naphtoflavone, reference compound] | 28% | 21% | 0.8 | Human PXR RECh20 [1]: 0.069 µM; Polar bear PXR RECh20 [2]: 0.69 µM
11 | Clc1cc(Cl)c(-c2ccc(Cl)c(Cl)c2Cl)cc1Cl [PCB 138] | 12% | 11% | 0.9 | 
12 | Clc1ccc(Cl)c(Cl)c1 [1,2,4-trichlorobenzene (1,2,4-TCB), 1,2,4-trichlorobenzene] | 10% | 9% | 0.9 | fold induction [5]: 0.9 ± 0.3; fold induction [6]: 1 ± 0.1
13 | Cl[C@H]1[C@H](Cl)[C@H](Cl)[C@@H](Cl)[C@H](Cl)[C@H]1Cl [α-hexachlorocyclohexane (α-HCH), α-hexachlorocyclohexane] | 57% | 13% | 0.2 | Human PXR RECh20 ([1]; human): 3.8 µM; fold induction [5]: 1.3 ± 0.8; fold induction [6]: 5.6 ± 1.5
14 | Clc1ccc(Cl)c(-c2cc(Cl)ccc2Cl)c1 [PCB 52] | 11% | 10% | 0.9 | 
15 | Clc1ccc(Cl)c(-c2c(Cl)c(Cl)cc(Cl)c2Cl)c1 [PCB 151] | 72% | 15% | 0.2 | 
16 | Clc1ccccc1C(c1ccccc1)(c1ccccc1)n1ccnc1 [Clotrimazole, reference compound] |  |  |  | Polar bear PXR RECh20 ([2]; polar bear): 0.63 µM
17 | Brc1ccc(Oc2ccc(Br)cc2Br)cc1 [BDE 28] | 31% | 9% | 0.3 | Human PXR RECh20 [1]: 11 µM
18 | Clc1ccc(-c2cc(Cl)c(Cl)cc2Cl)cc1Cl [PCB 118] | 25% | 14% | 0.6 | Human PXR RECh20 [1]: 34 µM
19 | Clc1cc(Cl)c(-c2c(Cl)cc(Cl)c(Cl)c2Cl)cc1Cl [PCB 183] | 28% | 31% | 1.1 | 
20 | Clc1ccc(-c2ccc(Cl)cc2Cl)cc1 [PCB 28] | 19% | 12% | 0.6 | 
21 | Clc1cc(Cl)c(-c2c(Cl)cc(Cl)c(Cl)c2Cl)c(Cl)c1 [PCB 184] | 33% | 19% | 0.6 | 
22 | Clc1ccc(-c2c(Cl)c(Cl)c(Cl)c(Cl)c2Cl)cc1Cl [PCB 190] | 46% | 18% | 0.4 | 
23 | Clc1ccc(-c2ccc(Cl)c(Cl)c2Cl)cc1 [PCB 60] | 10% | 8% | 0.7 | 
24 | CC(C)(c1cc(Br)c(O)c(Br)c1)c1cc(Br)c(O)c(Br)c1 [Tetrabromobisphenol A (TBBPA), Tetrabromobisphenol A] |  |  |  | Human PXR RECh20 [1]: 29 µM; Human PXR Relative activation (%) [1]: 32%; Polar bear PXR RECh20 [2]: 35 µM; Polar bear PXR Relative activation (%) [2]: 39%; Relative max induction (polar bear vs human) [2]: 1.2
25 | Clc1ccc(-c2ccc(Cl)cc2Cl)c(Cl)c1 [PCB 47] | 27% | 14% | 0.5 | 
26 | C[Si]1(C)O[Si](C)(C)O[Si](C)(C)O[Si](C)(C)O1 [Octamethylcyclotetrasiloxane (D4), Octamethylcyclotetrasiloxane] | 44% | 11% | 0.3 | fold induction [5]: 1.1 ± 0.4; fold induction [6]: 4.3 ± 0.3
27 | Brc1ccc(Oc2ccc(Br)cc2Br)c(Br)c1 [BDE 47] | 59% | 16% | 0.3 | Human PXR RECh20 [1]: 5 µM
28 | Clc1cccc(Cl)c1Cl [1,2,3-trichlorobenzene (1,2,3-TCB), 1,2,3-trichlorobenzene] | 9% | 9% | 0.9 | fold induction [5]: 0.9 ± 0.3; fold induction [6]: 0.9 ± 0.1
29 | Clc1cc(Cl)c(-c2cccc(Cl)c2Cl)cc1Cl [PCB 97] | 25% | 28% | 1.1 | 
30 | Hexabromocyclododecane [HBCD technical mixture] |  |  |  | Polar bear PXR RECh20 [2]: 1.7 µM
